Type in all cases: cell-based
The test system of assay [1] is Staphylococcus aureus Strain 2 (NCTC 6571). Briefly: MIC, Staphylococcus aureus Strain 2. As to conditions: for MIC: read-out: Minimum inhibitory concentrations (MICs), S. aureus 2. The protocol: (§1) The effects of compounds of the invention in relation to inhibiting the growth of various microorganisms was determined using methods known to those skilled in the art, for example in vitro methods as described in J. Med. Chem. 47, 2133-2156 (2004) and in vivo methods as described in J. Med. Microbiol. 46, 208-213 (1997), the disclosures of which documents are hereby incorporated by reference. In particular, minimum inhibitory concentrations (MICs) against microorganisms (e.g. S. Aureus, Streptococcus faecalis, Aspergillus niger, Candida albicans or Mycobacterium fortuitum) for compounds of the invention may be measured using procedures such as those described in A. J. Drummond and […] development of microbiological methods for phytochemical screening” Recent Res. Devel. […] The test wells on each 96 well microtitre plate were initially inoculated with culture medium (100 μL) using Mueller-Hinton Broth for antibacterial assays and Sabouraud Broth for antifungal assays. A solution of each test sample (100 μL) was added to one row of each plate and a series of doubling dilutions made for successive rows. Incubation was at 37° C. for antibacterial assay and 25° C. for antifungal assay. […] From the observed pattern of colour, the MIC was determined. All tests included sterility and growth controls.

Assay [2] relates to Aspergillus niger (IMI 1745). Briefly: MIC, Aspergillus niger. As to conditions: for MIC: read-out: Minimum inhibitory concentrations (MICs), A. niger. The protocol: as §1
Assay [3] has as its system Streptococcus faecalis (NCTC 775). Briefly: MIC, Streptococcus faecalis. Particulars: for MIC: read-out: Minimum inhibitory concentrations (MICs), St. faecalis. The method, then: as §1
Assay [4] concerns Staphylococcus aureus Strain 1 (BSAC04(1)) (Clinical isolate from Glasgow Royal Infirmary). Briefly: MIC, Staphylococcus aureus Strain 1. Particulars: Staphylococcus aureus, read-out: Minimum inhibitory concentrations (MICs), S aureus 1. The protocol:
The effects of compounds of the invention in relation to inhibiting the growth of various microorganisms was determined using methods known to those skilled in the art, for example in vitro methods as described in J. Med. Chem. 47, 2133-2156 (2004) and in vivo methods as described in J. Med. Microbiol. 46, 208-213 (1997), the disclosures of which documents are hereby incorporated by reference.
In particular, minimum inhibitory concentrations (MICs) against microorganisms (e.g. S. Aureus, Streptococcus faecalis, Aspergillus niger, Candida albicans or Mycobacterium fortuitum) for compounds of the invention may be measured using procedures such as those described in A. J. Drummond and R. D. Waigh “The development of microbiological methods for phytochemical screening” Recent Res. Devel. Phytochem. 4, 143-152 (2000), the disclosures of which document are hereby incorporated by reference.
Sample dilutions were typically prepared by dissolving the test sample (2 mg) in sterile water (10 mL) to provide a working concentration of 200 μg/ml. The test wells on each 96 well microtitre plate were initially inoculated with culture medium (100 μL) using Mueller-Hinton Broth for antibacterial assays and Sabouraud Broth for antifungal assays. A solution of each test sample (100 μL) was added to one row of each plate and a series of doubling dilutions made for successive rows. Incubation was at 37° C. for antibacterial assay and 25° C. for antifungal assay. […] From the observed pattern of colour, the MIC was determined. All tests included sterility and growth controls.

The test system of assay [5] is Candida albicans (NCPF3179). The assay can be described thus: MIC, Candida albicans. Particulars: for MIC: read-out: Minimum inhibitory concentrations (MICs), C. albicans. The method, then:
as §1

Setting [6] is: Staphylococcus aureus, NCTC6571, value in parentheses, na = not active.
[7] abbreviates: Staphylococcus aureus, NCTC6571, value outside parentheses.
Setting [8] is: Aspergillus niger, value in parentheses, na = not active.
Where [9] appears, read: Aspergillus niger, value outside parentheses.
Setting [10] is: Enterococcus faecalis, NCTC775, value in parentheses, na = not active.
Where [11] appears, read: Enterococcus faecalis, NCTC775, value outside parentheses.
The mark [12] stands for this setting: value in parentheses, na = not active.

Structures are written as SMILES. Values after ≈ are worked out from the molar mass of the structure shown. Read-outs that look alike come from different tables or passages of the source.

Turning to `COc1cccc(/C=C/c2ccc(C(=O)Nc3cc(C(=O)Nc4cc(C(=O)NCCN5CCOCC5)n(C)c4)n(C)c3)cc2)c1` [Example 1, 4-({[4-({4-[(E)-2-(3-Methoxyphenyl)ethenyl]benzoyl}amino)-1-methyl-1H-pyrrol-2-yl]carbonyl}amino)-1-methyl-N-[2-(4-morpholinyl)ethyl]-1H-pyrrole-2-carboxamide], the MIC in assay [1] (setting [6]) worked out at 8 µg/mL; in assay [1] (setting [7]), 11 µM; in assay [2] (setting [8]) it was 100 µg/mL; in assay [2] (setting [9]), 138 µM; in assay [3] (setting [10]), 50 µg/mL; in assay [3] (setting [11]) it was 69 µM. Moreover, the values for the MIC in assay [4] (setting [12]) and in assay [4] (value outside parentheses) were 2 µg/mL and 2.7 µM, respectively.
With `Cn1cccc1/C=C/c1ccc(C(=O)Nc2cc(C(=O)Nc3cc(C(=O)NCCN4CCOCC4)n(C)c3)n(C)c2)cc1` [Example 3, 1-Methyl-N-[1-methyl-5-({[2-(4-morpholinyl)ethyl]amino}carbonyl)-1H-pyrrol-3-yl]-4-({4-[(E)-2-(1-methyl-1H-pyrrol-2-yl)ethenyl]benzoyl}amino)-1H-pyrrole-2-carboxamide], the MIC in assay [1] (setting [6]) is 16 µg/mL; in assay [1] (setting [7]), 22.9 µM; in assay [2] (setting [8]), 100 µg/mL; in assay [2] (setting [9]), 143 µM; in assay [3] (setting [10]), 12.5 µg/mL; in assay [3] (setting [11]) it was 16.4 µM. For the same molecule, the MIC in assay [4] (setting [12]) is 4 µg/mL; in assay [4] (value outside parentheses), 5.7 µM.
As for `CN(C)CCCNC(=O)c1cc(NC(=O)c2cc(NC(=O)c3ccc(/C=C/c4cnc5ccccc5c4)cc3)cn2C)cn1C` [Example 5, N-[5-({[3-(Dimethylamino)propyl]amino}carbonyl)-1-methyl-1H-pyrrol-3-yl]-1-methyl-4-({4-[(E)-2-(3-quinolinyl)ethenyl]benzoyl}amino)-1H-pyrrole-2-carboxamide], the MIC in assay [1] (setting [6]) turned out to be 25 µg/mL; in assay [1] (setting [7]), 35 µM; in assay [2] (setting [8]), 50 µg/mL; in assay [2] (setting [9]), 70 µM; in assay [3] (setting [10]), 50 µg/mL; in assay [3] (setting [11]), 70 µM. Further, the MIC in assay [4] (setting [12]) turned out to be 25 µg/mL; in assay [4] (value outside parentheses) it was 35 µM.
For `COc1cccc(/C=C/c2cccc(C(=O)Nc3cc(C(=O)Nc4cc(C(=O)NCCCN(C)C)n(C)c4)n(C)c3)c2)c1` [Example 6], the “Minimum inhibitory concentrations (MICs), S. aureus 2” value in assay [1] (setting [12]) worked out at 50 µg/mL (≈ 85.8 µM). The figures for the MIC in assay [1] (value outside parentheses), in assay [2] (value outside parentheses) and in assay [3] (value outside parentheses) were 72 µM, 143 µM and 72 µM, respectively. Also, in assay [2] (setting [12]), the “Minimum inhibitory concentrations (MICs), A. niger” value was determined as 100 µg/mL (≈ 172 µM). Also, the “Minimum inhibitory concentrations (MICs), St. faecalis” value in assay [3] (setting [12]) is 50 µg/mL (≈ 85.8 µM).
Take `CN(C)CCCNC(=O)c1cc(NC(=O)c2cc(NC(=O)c3ccc(/C=C/c4ccncc4)cc3)cn2C)cn1C` [Example 7, N-[5-({[3-(Dimethylamino)propyl]amino}carbonyl)-1-methyl-1H-pyrrol-3-yl]-1-methyl-4-({4-[(E)-2-(4-pyridinyl)ethenyl]benzoyl}amino)-1H-pyrrole-2-carboxamide]: the MIC was 50 µg/mL in assay [1] (setting [6]); 75 µM in assay [1] (setting [7]); 25 µg/mL in assay [3] (setting [10]); 37 µM in assay [3] (setting [11]); 16 µg/mL in assay [4] (setting [12]); 24 µM in assay [4] (value outside parentheses).
As for `CN(C)CCCNC(=O)c1cc(NC(=O)c2cc(NC(=O)c3cc(/C=C/c4ccc([N+](=O)[O-])cc4)cn3C)cn2C)cn1C` [Example 8, N-[5-({[5-({[3-(Dimethylamino)propyl]amino}carbonyl)-1-methyl-1H-pyrrol-3-yl]amino}carbonyl)-1-methyl-1H-pyrrol-3-yl]-1-methyl-4-[(E)-2-(4-nitrophenyl)-ethenyl]-1H-pyrrole-2-carboxamide], the MIC in assay [1] (setting [6]) turned out to be 50 µg/mL; in assay [1] (setting [7]) it was 70 µM; in assay [2] (setting [8]), 100 µg/mL; in assay [2] (setting [9]), 140 µM; in assay [3] (setting [10]), 50 µg/mL; in assay [3] (setting [11]), 70 µM.
As for `Cn1cc(NC(=O)c2cc(NC(=O)c3cc(/C=C/c4ccc5ccccc5n4)cn3C)cn2C)cc1C(=O)NCCN1CCOCC1` [Example 11, 1-Methyl-N-[1-methyl-5-({[2-(4-morpholinyl)ethyl]amino}carbonyl)-1H-pyrrol-3-yl]-4-[({1-methyl-4-[(E)-2-(2-quinolinyl)ethenyl]-1H-pyrrol-2-yl}carbonyl)-amino]-1H-pyrrole-2-carboxamide], the MIC worked out at 100 µg/mL in assay [5] (Candida albicans, NCPF3179, value in parentheses, na = not active); 134 µM in assay [5] (Candida albicans, NCPF3179, value outside parentheses); 4 µg/mL in assay [4] (setting [12]); 4.6 µM in assay [4] (value outside parentheses).
Turning to `Cn1cc(NC(=O)c2cc(NC(=O)c3csc(/C=C/c4ccc5ccccc5n4)n3)cn2C)cc1C(=O)NCCN1CCOCC1` [Example 12, N-[1-Methyl-5-({[1-methyl-5-({[2-(4-morpholinyl)ethyl]amino}carbonyl)-1H-pyrrol-3-yl]amino}carbonyl)-1H-pyrrol-3-yl]-2-[(E)-2-(2-quinolinyl)ethenyl]-1,3-thiazole-4-carboxamide], the MIC in assay [4] (setting [12]) was found to be 8 µg/mL; in assay [4] (value outside parentheses), 10 µM.
As for `Cn1cc(NC(=O)c2cc(NC(=O)c3ccc(/C=C/c4ccc5ccccc5c4)cc3)cn2C)cc1C(=O)NCCN1CCOCC1` [Example 13, 1-Methyl-N-[1-methyl-5-({[2-(4-morpholinyl)ethyl]amino}carbonyl)-1H-pyrrol-3-yl]-4-({4-[(E)-2-(2-naphthyl)ethenyl]benzoyl}amino)-1H-pyrrole-2-carboxamide], the MIC turned out to be 50 µg/mL in assay [1] (setting [6]); 68 µM in assay [1] (setting [7]); 100 µg/mL in assay [2] (setting [8]); 136 µM in assay [2] (setting [9]); 100 µg/mL in assay [3] (setting [10]); 136 µM in assay [3] (setting [11]).
Turning to `Cn1cc(NC(=O)c2cc(NC(=O)c3ccc(/C=C/c4cc5ccccc5nc4On4nnc5ccccc54)cc3)cn2C)cc1C(=O)NCCN1CCOCC1` [Example 14, 4-[(4-{(E)-2-[2-(1H-1,23-Benzotriazol-1-yloxy)-3-quinolinyl]ethenyl}benzoyl)-amino]-1-methyl-N-[1-methyl-5-({[2-(4-morpholinyl)ethyl]amino}carbonyl)-1H-pyrrol-3-yl]-1H-pyrrole-2-carboxamide], the “Minimum inhibitory concentrations (MICs), S. aureus 2” value in assay [1] (setting [12]) amounted to 50 µg/mL (≈ 65.4 µM). In addition, the MIC in assay [1] (value outside parentheses) was 57 µM; in assay [2] (value outside parentheses), 57 µM; in assay [3] (value outside parentheses), 114 µM; in assay [5] (value outside parentheses) it was 114 µM. In addition, the “Minimum inhibitory concentrations (MICs), A. niger” value in assay [2] (setting [12]) came to 50 µg/mL (≈ 65.4 µM). The “Minimum inhibitory concentrations (MICs), St. faecalis” value in assay [3] (setting [12]) worked out at 100 µg/mL (≈ 131 µM). In addition, the “Minimum inhibitory concentrations (MICs), C. albicans” value in assay [5] (setting [12]) worked out at 100 µg/mL (≈ 131 µM).
In the case of `Cn1cc(NC(=O)c2cc(NC(=O)c3ccc(/C=C/c4ccc5ccccc5n4)cc3)cn2C)cc1C(=O)NCCN1CCOCC1` [Example 15], the “Minimum inhibitory concentrations (MICs), S. aureus 2” value in assay [1] (setting [12]) came to 100 µg/mL (≈ 158 µM). For the same molecule, the MIC in assay [1] (value outside parentheses), in assay [2] (value outside parentheses) and in assay [5] (value outside parentheses) was 134 µM each time. In addition, the “Minimum inhibitory concentrations (MICs), A. niger” value in assay [2] (setting [12]) came out at 100 µg/mL (≈ 158 µM). The “Minimum inhibitory concentrations (MICs), C. albicans” value in assay [5] (setting [12]) worked out at 100 µg/mL (≈ 158 µM).
As to `CC(C)CCc1sc(NC(=O)c2cc(NC(=O)c3ccc(/C=C/c4ccc5ccccc5n4)cc3)cn2C)nc1C(=O)NCCN1CCOCC1` [Example 19, 5-Isopentyl-2-({[1-methyl-4-({4-[(E)-2-(2-quinolinyl)ethenyl]benzoyl}amino)-1H-pyrrol-2-yl]carbonyl}amino)-N-[2-(4-morpholinyl)ethyl]-1,3-thiazole-4-carboxamide], the MIC in assay [2] (setting [8]) was 100 µg/mL; in assay [2] (setting [9]) it was 122 µM.

The record behind these values is patent US8012967B2, “Minor groove binders” (University of Strathclyde, priority 2006, dated 2011).
